Columns and labels:
DRG cells = assay: Microelectrode Array (MEA) electrical activity of capsaicin-stimulated DRG cells; format: cell-based; conditions: dose range 10-1000 μg/ml; FIG. 3B
DRGs = format: cell-based; conditions: 24-72 hours, 2.5 mg/ml of HA or equivalent
Protocol: (§1) FIG. 4: Data of the effect of various peptide drug embodiments and peptide alone on metabolic activity and viability of cell types (DRG: dorsal root ganglion; hChon: human normal chondrocytes; OA: human OA chondrocytes). n=3 in all cases; all tested at 2.5 mg/ml of HA or equivalent using gram:gram ratio (See Table). Details on test materials given in below table. […] Panel B: Viability assessed using Live/Dead assay. No significant difference between peptide drug at 24-72 hours in DRGs compared to control.

[1] = tested on: TRPV1 pathway in cortical neurons; assay: Calcium imaging of cortical neurons (capsaicin, glutamic acid); format: cell-based; conditions: 1 μg/ml
Protocol: TRPV1 channels on neurons open in response to stimuli like capsaicin. Once open cations like calcium flow into the cell, which triggers action potentials and the sensation of pain. Cells tested were cortical neurons, n=3 unless noted. Panel A: Calcium imaging is used to measure calcium flow across neural cell membranes. Cells treated in sequence with no chemical (control), PLA (1.9 kDa at 1 μg/ml), capsaicin, and then glutamic acid. […] This is an effect seen by TRPV1 agonists that are used as analgesics such as capsaicin.

cortical neurons = assay: Patch clamp of cortical neurons (sodium current); format: cell-based; conditions: 1 μg/ml; FIG. 10C
E. coli [2] = assay: Optical density assay of antimicrobial effect; format: cell-based; conditions: for E. coli growth (optical density as percentage of control): 16 hours incubation, polymers and conjugates 1-5 mg/ml, PLA 0.01-0.5 mg/ml
Protocol: As an example of this Hydrobloc prototypes and PLA 1.9 kDa at various concentrations were incubated with E. coli in wells. If microbial growth occurs, then the optical density increases reflecting the colloidal nature of bacterial cells. As a control a blank well is prepared containing growth medium and saline. The results after 16 hours incubation are presented in the figure as a percentage of control. Panel A: Optical density results for various Hydrobloc prototypes and related test materials.
(§2) Hyaluronic acid (2.2-2.4 MDa) or PEG (10 kDa) was used as base polymer conjugated to Poly-L-Arginine (1.9 kDa or 15-70 kDa) as the AMP in varying mass/mass ratios of conjugation, and at different concentrations. Controls included empirical admixtures of the polymer/AMP as well as just the polymer or AMP.
Principle: Antimicrobial test materials added to wells at various concentrations, wells seeded with microbe. Microbial growth increase the optical density (OD)—assay monitors ability of microbe to grow in presence of test material. […] The microbe used was E. Coli. The results are shown in FIG. 13 with the values presented as a percentage of control (blank). […] The OD is ˜≤0.0 at all concentrations (0.01-0.5 mg/ml). Overall statistical significance is seen with 0.25 mg/ml and 5 mg/ml.

E. coli [3] = assay: Kirby-Bauer disk diffusion susceptibility test; format: cell-based; conditions: BP12P03 1-10 mg/ml; PLA 0.5 mg/ml
Protocol: as §2
(§3) Principle: Disks were saturated with antimicrobial test material and place on agar seeded with microbe. test material diffuses out and after incubation diameter of the clear zone is proportional to potency against the microbe. BP12P03 at 1 mg/ml −10 mg/ml; PLA (1.9 kDA) at 0.5 mg/ml were tested. Microbes used were S. aureus, S. epidermis and E. coli.

S. aureus = assay: Kirby-Bauer disk diffusion susceptibility test; format: cell-based; conditions: BP12P03 1-10 mg/ml; PLA 0.5 mg/ml
Protocol: as §2, §3

S. epidermis = assay: Kirby-Bauer disk diffusion susceptibility test; format: cell-based; conditions: BP12P03 1-10 mg/ml; PLA 0.5 mg/ml
Protocol: as §2, §3

[4] = tested on: dorsal root ganglia (DRG) (sensory) neurons; assay: Single cell patch clamp on DRG neurons (sodium current, action potentials); format: cell-based, rat
Protocol: Dorsal Root Ganglia (DRG) sensory neurons were extracted from […] (Cdram). The DRG explants were dissected from the cervical and thoracic regions of the spine of neonatal rat pups (P5) and placed in cold HBSS (lx) without Ca^2+/Mg^2+ (Invitrogen, USA). After cleaning the remnants of peripheral nerve processes, DRGS were seeded in 12-well glass-coated laminin plates. Cells were feed every 2/3 days and they were processed for single cell patch clamping.
Whole cell patch clamp configuration was used to record from 100 day iPSC derived neurons and DRG neurons. […]
Recordings were made using the EPC10 patch clamp amplifier from HEKA. Voltage-dependent Na^+ and K^+ currents were recorded in voltage clamp mode from a holding potential of −70 mV; voltage step depolarization was applied up to +20 mV in 10 mV increments and recorded for 200 ms. All data were recorded unfiltered for voltage and current clamp recording at 50.0 kHz and 20.0 kHz, respectively.
Intrinsic firing properties of neurons were recorded in current clamp mode, with step current injections from a holding value of −5 pA up to +45 pA, for 500 ms, in 10 pA increments. Spontaneous action potential (AP) was recorded in current clamp mode at zero current injection (resting membrane potential) just after whole cell configuration was achieved. […]

[5] = tested on: dorsal root ganglia (DRG) (sensory) neurons; conditions: literature value; cited from earlier work
[6] = tested on: DRG: dorsal root ganglion; hChon: human normal chondrocytes; OA: human OA chondrocytes; format: cell-based; conditions: 24-72 hours; 2.5 mg/ml of HA or equivalent by gram:gram ratio; three cell types
Protocol: as §1

Compound: Poly-L-Arginine [PLA 1.9 kDa]
- Concentration at which most suppression of spike count is seen (DRG cells): 10 µg/mL
- Viability (Live/Dead) (DRGs): best viability profile
- Capsaicin (TRPV1 pathway) response ([1]; cortical neurons, n=3): blocks the capsaicin (TRPV1 pathway response)
- Glutamate response ([1]; glutamic acid after capsaicin): glutamate response is unaffected
- Block of sodium current (cortical neurons): time dependent effect—getting stronger with time
- E. coli growth (optical density as percentage of control) (E. coli [2]): potent giving quantifiable antimicrobial effects at all concentrations tested
- E. coli growth (optical density as percentage of control) (E. coli [2]; listed as PLA): very potent
- Optical density (OD) (E. coli [2]; all concentrations (0.01-0.5 mg/ml)): ≤ 0.0
- Activity in disk diffusion (E. coli [3]): activity against all tested species
- Activity in disk diffusion (S. aureus): activity against all tested species
- Activity in disk diffusion (S. epidermis): activity against all tested species

Compound: NC1=N[C@H](O)[C@H]2[C@H]3O[C@]4(O)O[C@@H]([C@@H](O)[C@@]2(N1)[C@@H]4O)[C@]3(O)CO [TTX, tetrodotoxin]
- Percentage reduction of sodium current (control) [4]: approximately 99%

Compound: CCN(CC)CC(=O)Nc1c(C)cccc1C [Lidocaine]
- Reduction of sodium current reported in the literature [5]: 38%

Compound: Poly-L-arginine hydrochloride [Hydrobloc C01]
- Metabolic activity (Alamar Blue) [6]: negatively affect metabolic activity
- Viability (Live/Dead) (DRGs): negatively affect viability

Source: patent US20250009843A1, “COMPOSITIONS AND METHODS FOR TREATMENTS BY MODULATION OF EXCITABLE TISSUES ACTIVITIES, AND FOR ANTIMICROBIAL APPLICATIONS” (priority 2021, published 2025)
